Test results from patent US11969505B2, “Method for freeze-drying cells in a hydrogel comprising nanofibrillar cellulose and freeze-dried cells in an aerogel comprising nanofibrillar cellulose” (UPM-KYMMENE CORPORATION, priority 2016, dated 2024).

Test system: Hep G2 cells
Test: Cellstain double staining (Live/Dead, calcein AM / propidium iodide) viability after freeze-drying and rehydration
Format: cell-based, human
Settings: 24 h trehalose incubation, same lyoprotectants, liquid nitrogen freezing; with vs without GrowDex
Description: One method to evaluate the cell membrane integrity is enzyme activity assays combined with nuclei staining. Calcein AM (acetoxy methyl) ester and propidium iodide are suitable for viability assessment of different microbes. Calcein AM is itself a non-fluorescent and cell membrane permeable molecule, but undergoes an esterase reaction when in cytosol if correct enzymes are available and transforms into calcein, which is a fluorescent molecule. This way, the fluorescent cells can be visually observed with fluorescence microscopy or a plate reader.
Therefore, only necrotic cells are affected, whereas apoptotic and healthy cells not. Once in the cytosol, the PI binds to any available DNA and RNA, including the DNA in nucleus. When excited with 535 nm light, an emission of 617 nm can be observed on the areas of dead cells.
Three lyoprotectants were chosen for testing with GrowDex®. First, the cells were cultivated regularly for 4 days either in 2D or 3D with 0.8% (w/w) of GrowDex®, and then the medium was changed. […] Then, the systems were freeze-dried and rehydrated and evaluated for viability with Cellstain double staining and fluorescence microscopy. […]
Autofluorescence was ruled out by killed control samples that were stained and imaged at the same time showing no green fluorescence in identical settings. […]

OC[C@H]1O[C@H](O[C@H]2O[C@H](CO)[C@@H](O)[C@H](O)[C@H]2O)[C@H](O)[C@@H](O)[C@@H]1O [trehalose, α-D-glucopyranosyl-(1→1)-α-D-glucopyranoside]
Live/dead dual staining outcome after freeze-drying and rehydration: the cells did not survive
